# From patent US7122529B2, “Compounds that release nitric oxide at controlled rates upon photolysis” (The Johns Hopkins University, priority 2001, dated 2006)
# Marks after values point to notes of the source that are not given here.
# Tests used:
# Format in all cases: physicochemical
# [1] = Rate of NO release upon photolysis compared with thermal decay of 1 and 20; details: for rate of photochemical release of NO versus thermal decomposition of 1 and 20: 10 seconds photolysis, Xenon arc lamp long-pass 324 nm filter, 10 mM phosphate and acetate buffers
# Description: This example describes the general procedure for the determination of the rate of NO release from compounds 6 and 9 upon photolysis. Stock solutions of compounds 6 and 9 were prepared to be 100 μM in acetonitrile, and of these 15 μL aliquots were diluted into to […] of aqueous solutions at the appropriate pH (10 mM phosphate and acetate buffers). The probe was allowed to equilibrate in the sample solution before 10 seconds of photolysis using a Xenon arc lamp with a long-pass 324 nm filter. The rate of NO release was then monitored over the appropriate time span. For comparison, the thermal decay of both compounds 1 and 20 were recorded under the same conditions as those of the photochemical experiments.
# As shown, this pH dependence follows the same pH dependence for the release from authentic samples of diazeniumdiolate 1.
# [2] = Electrochemical quantification of NO / diazeniumdiolate released upon photolysis of O2-benzyl diazeniumdiolates
# Description: Analysis of the above described organic products produced following photolysis of the compounds was studied in argon and oxygen-saturated 90%–99% aqueous acetonitrile. Quantification of NO released upon photolysis was performed electrochemically with an inNO Nitric Oxide Measuring System using an amiNO-2000 probe (Innovative Instruments Inc., Tampa, Fla.). The amiNO-2000 probe was calibrated using ascorbic acid/sodium nitrite before and after NO measurements were conducted. In order to differentiate NO production arising from diazeniumdiolate from non-diazeniumdiolate derived NO, the dependence of diazeniumdiolate decomposition rate on pH was utilized. […] Aqueous solutions at pH 11 of the compounds were irradiated and then analyzed for NO. Any NO detected under these conditions must arise from a non-diazeniumdiolate pathway. For all compounds examined the amount of NO formed from such a pathway was negligible. To liberate NO associated with the photoreleased diazeniumdiolate, solutions were acidified with 1.0 M H2SO4 to a pH of between 2–3. In each case, the yield of NO was determined from a series of measurements following photolysis to a range of percent conversions. […] NO yields determined from these experiment along with the observation that compound 1 dissociates to give 1.5 equivalents of NO were used to derive yields of photoreleased diazeniumdiolates from the compounds studied.
# Since Path B is favored with the addition of strong π-donating meta substituents, the dihydroxybenzyl derivative of compound 3, n=0, Y=H, R1=R3=R5=H, R2=R4=OH (O^2-3,5-dihydroxybenzyl substituted diazeniumdiolate) was studied in further detail. Consistent with the expected large effect of oxyanionic meta substitution, when compound 3, n=0, Y=H, R1=R3=R5=H, R2=R4=OH is irradiated (Rayonet, 300 nm) in an aqueous solution of pH 11.2 (containing 1% acetonitrile) to 5–35% conversion, the amount of NO detected corresponded to a yield of photoreleased diazeniumdiolate compound 1 of approximately 92%. A comparison of selected results observed with O^2-substituted diazeniumdiolate derivatives having the backbone of compound 3 is shown in FIG. 1. After photolysis of the compound (t=0 sec) there is no nitric oxide production.
# [3] = Quantum yields of photolysis of compounds 2 and 3 (actinometry)
# [4] = Quantum yields of photolysis of compounds 6 and 9; details: ~20 μM in 90–95% aqueous acetonitrile, below 40% conversion
# [5] = Diazeniumdiolate / NO released upon photolysis of compounds 6 and 9 (electrochemical NO probe); details: 0.498 μM, 100% conversion; for % NO: Xenon arc lamp with long-pass 324 nm filter, NO liberated by acidification; for % Diazeniumdiolate: pH 12.2, Xenon arc lamp with long-pass 324 nm filter, derived with 1.5 / 1.8 eq NO
# Description: This example describes a general procedure for the determination of diazeniumdiolate released upon photolysis of compounds 6 and 9. The amiNO-700 probe was calibrated using ascorbic acid/sodium nitrite before and after NO measurements were recorded. Calibration curves were prepared in order to relate current (detected by the instrument) with concentration of NO. Stock solutions of compounds 6 and 9 were prepared to be 100 μM in acetonitrile, and of these 15 μL aliquots were diluted into to 3 mL of a pH 12.2 aqueous solution. The resulting 0.498 μM solutions were photolyzed with a Xenon arc lamp and a long-pass 324 nm filter for lengths of time appropriate to reach 100% conversion (6–7 minutes for most compounds at this concentration). Under these basic conditions any diazeniumdiolate generated photochemically is stable, and neither sodium-1-(N,N-diethylamino)-1-diazen-1-ium-1,2-diolate (compound 1) or sodium-1-(piperidin-1-yl)-diazen-1-ium-1,2-diolate (compound 20) absorbs at wavelengths above 324 nm. No NO was measured electrochemically at this pH, indicating there are no photochemical paths that lead directly to NO. The NO associated with the photochemically generated diazeniumdiolate was liberated by the addition of 10 μL of 1.0 M sulfuric acid (final solution pH's were typically 2–3. Using the calibration curve and the fact that the amount of NO released upon thermal decomposition of compounds 1 and 20 was calculated to be 1.5 and 1.8 eq. respectively, the absolute percentage of diazeniumdiolate generated upon photolysis of compounds 6 and 9 was determined. FIG. 2 depicts the amount of nitric oxide produced upon photolysis from a selection of 1-methylnaphthyl and 2-methylnaphthyl-O^2-substituted diazeniumdiolates having a backbone of compounds 6 and 9.
# Compounds 6 and 9 are soluble in 99% aqueous acetonitrile up to 20 μM and are thermally stable indefinitely at pH 4–11, 25° C. at this concentration. Analysis of the products following photolysis (Rayonet, 300 or 350 nm, Xenon arc lamp with a long-pass 324 nm filter) of compounds 6 and 9 in both argon- and oxygen-saturated 99% aqueous acetonitrile is summarized in Table 2 below. Quantification of NO released upon photolysis was performed electrochemically with an inNO Nitric Oxide Measuring System using an ami-700 probe (Innovative Instruments Inc., Tampa, Fla.).
# [6] = Absolute amount of NO released from thermal decomposition of diazeniumdiolates 1 and 20; details: 0.15–0.66 μM in aqueous solution pH 12.2, acidified with 1.0 M sulfuric acid
# Description: Determination of the absolute amount of NO released from the thermal decomposition of sodium-1-(N,N-diethylamino)-diazen-1-ium-1,2-diolate compound 1, and sodium-1-(piperidin-1-yl)-diazen-1-ium-1,2-diolate compound 20.
# Stock solutions of both compounds 1 and 20 were prepared to be 100 μM in aqueous solution at pH=12.2. A series of μL aliquots of the stock solution were diluted into 3 mL of aqueous solution at pH=12.2 resulting in an array of concentrations from 0.15–0.66 μM. The probe was allowed to equilibrate in the sample solutions before the addition of 10 μL of 1.0 M sulfuric acid. The final concentration of NO in solution after complete decomposition was determined by the calibration curve, and a linear plot of NO released vs. initial concentration was obtained. By this method it was determined that compounds 1 and 20 release 1.5 and 1.8 eq. of NO respectively.
# [7] = Lifespan of diazeniumdiolate 1 as a function of pH; details: room temperature
# [8] = H2O/CH3CN 99/1, photolysis 300 nm, based on percent reactant converted, NO measured and 1.5 eq NO per diazeniumdiolate 1, estimated error ±5%
# [9] = solvent H2O/CH3CN 0/100, photolysis 254 nm
# [10] = solvent H2O/CH3CN 0/100, photolysis 300 nm
# [11] = solvent H2O/CH3CN 99/1, photolysis 254 nm
# [12] = solvent H2O/CH3CN 99/1, photolysis 300 nm
compound,measurement,setting,value
COc1cc2ccccc2cc1/C=C/CON=[N+]([O-])N1CCCCC1,rate of photochemical release of NO versus thermal decomposition of 1 and 20,[1],consistent with the known thermal decays
"CCN(CC)[N+]([O-])=NOCc1cccc(OC)c1 [3 (R2 = MeO, R4 = H), O^2-(3-methoxybenzyl)-1-(N,N-diethylamino)-diazen-1-ium-1,2-diolate]",% Diazeniumdiolate,[2]; [8],6%
"CCN(CC)[N+]([O-])=NOCc1cccc(N(C)C)c1 [3 (R2 = NMe2, R4 = H), O^2-(3-dimethylaminobenzyl)-1-(N,N-diethylamino)-diazen-1-ium-1,2-diolate]",% Diazeniumdiolate,[2]; [8],35%
same,Quantum Yield,[3]; [9],0.60
same,Quantum Yield,[3]; [10],0.17
same,Quantum Yield,[3]; [11],0.25
same,Quantum Yield,[3]; [12],0.04
"CCN(CC)[N+]([O-])=NOCc1cc(OC)cc(OC)c1 [3 (R2 = R4 = MeO), O^2-(3,5-dimethoxybenzyl)-1-(N,N-diethylamino)-diazen-1-ium-1,2-diolate]",% Diazeniumdiolate,[2]; [8],10%
same,Quantum Yield,[3]; [9],0.35
same,Quantum Yield,[3]; [11],0.17
"CCN(CC)[N+]([O-])=NOCc1cc(N(C)C)cc(N(C)C)c1 [3 (R2 = R4 = NMe2), O^2-(3,5-bis-dimethylaminobenzyl)-1-(N,N-diethylamino)-diazen-1-ium-1,2-diolate]",% Diazeniumdiolate,[2]; [8],47%
same,Quantum Yield,[3]; [9],0.53
same,Quantum Yield,[3]; [10],0.18
same,Quantum Yield,[3]; [11],0.26
same,Quantum Yield,[3]; [12],0.05
"CCN(CC)[N+]([O-])=NOCc1cc(O)cc(O)c1 [3 (R2 = R4 = OH), O^2-(3,5-dihydroxybenzyl)-1-(N,N-diethylamino)-diazen-1-ium-1,2-diolate]",% Diazeniumdiolate,"[2]; H2O/CH3CN 99/1, photolysis 300 nm at pH 11.2, 5–35% conversion",92^d %
same,Quantum Yield,[3]; [12],0.87
"CCN(CC)[N+]([O-])=NOCc1cccc2ccccc12 [6 (n = 0, Y = R1–R7 = H), O^2-(1-naphthylmethyl)-1-(N,N-diethylamino)-1-diazen-1-ium-1,2-diolate]",Quantum Yield,[4]; 300 nm (rayonet reactor),0.01^a
same,% NO,[5],1.5%
same,% Diazeniumdiolate,[5],1%
"CCN(CC)[N+]([O-])=NOC/C=C/c1cccc2ccccc12 [6 (n = 1, Y = R1–R7 = H)]",Quantum Yield,[4]; 300 nm (rayonet reactor),0.12^a
same,% NO,[5],37.5%
same,% Diazeniumdiolate,[5],25%
"CCN(CC)[N+]([O-])=NOCc1cc2ccccc2cc1OC [9 (n = 0, Y = R1, R3–R7 = H, R2 = OMe), O^2-(3-methoxy-2-naphthylmethyl)-1-(N,N-diethylamino)-diazen-1-ium-1,2-diolate]",Quantum Yield,[4]; 300 nm (rayonet reactor),0.02^a
same,% NO,[5],30%
same,% Diazeniumdiolate,[5],20%
same,% Diazeniumdiolate,"[5]; listed as 9 (where n=0, Y=R1, R3–R7=H, R2=OMe, X=diethylamino)",50%
"CCN(CC)/[N+]([O-])=N/[O-].[Na+] [Compound 1, sodium-1-(N,N-diethylamino)-diazen-1-ium-1,2-diolate]",NO released upon thermal decomposition,[6],1.5 eq.
same,lifespan,[7]; pH 3,several seconds
same,lifespan,[7]; pH 11,several hours
same,rate of release of nitric oxide from photochemically generated diazeniumdiolate,"[1]; FIG. 5, varied pH",pH dependent
"[Na+].[O-]/N=[N+](\[O-])N1CCCCC1 [Compound 20, sodium-1-(piperidin-1-yl)-diazen-1-ium-1,2-diolate]",NO released upon thermal decomposition,[6],1.8 eq.
"CCN(CC)[N+]([O-])=NOC/C=C/c1cc2ccccc2cc1OC [O^2-(3-(3-methoxy-2-naphthyl)-E-2-propenyl)-1-(N,N-diethylamino)-diazen-1-ium-1,2-diolate]",% Diazeniumdiolate,[5],50%
same,rate of photochemical release of NO versus thermal decomposition of 1 and 20,[1],consistent with the known thermal decays
"CCN(CC)[N+]([O-])=NOC/C=C/c1cccc2c(OC)ccc(OC)c12 [O^2-(3-(5,8-dimethoxy-1-naphthyl)-E-2-propenyl)-1-(N,N-diethylamino)-diazenen-1-ium-1,2-diolate]",Quantum Yield,[4]; 355 nm (ND:YAG laser),0.66^b
same,% NO,[5],143%
same,% Diazeniumdiolate,[5],95%
"CCN(CC)[N+]([O-])=NOCc1cccc2c(OC)ccc(OC)c12 [O^2-(5,8-dimethoxy-1-naphthylmethyl)-1-(N,N-diethylamino)-diazen-1-ium-1,2-diolate]",Quantum Yield,[4]; 355 nm (ND:YAG laser),0.12^b
same,% NO,[5],60%
same,% Diazeniumdiolate,[5],40%
"CCN(CC)[N+]([O-])=NOCc1ccc2c(OC)ccc(OC)c2c1 [O^2-(5,8-dimethoxy-2-naphthylmethyl)-1-(N,N-diethylamino)-diazen-1-ium-1,2-diolate]",Quantum Yield,[4]; 355 nm (ND:YAG laser),0.05^b
same,% NO,[5],51%
same,% Diazeniumdiolate,[5],34%
